This assay has as its target Ba/F3 (EGFR^L858R/T790M/C797S) cells (Homo sapiens, UniProt P00533, T790M/C797S/L858R, cells depend on it). The assay is described as follows: Antiproliferative activity on Ba/F3 (EGFR L858R/T790M/C797S) cells (CTG). The class given is cell-based. The note with it: 72h incubation, CTG luminescence, read-out: IC50 (nM), antiproliferative activity. The procedure:
30 nL of the compound dilution was added to a 384-well plate by Echo (Labcyte, Echo550).
The percent inhibition rate (% inhibition) was calculated by the following formula
[formula] • LUMcmpd: Luminescence value of assay compound. • LUMpositive: Average LUM value of positive drug with a concentration of 10 μM. • LUMvehicle: Average LUM value of negative control group without drug treatment.
The nonlinear regression curve (dose response-variable slope) between the value of inhibition rate (%) and the logarithm of compound concentration was fitted with graphpad prism 8.0, the effect dose curve of compound was drawn, and the IC50 value was calculated.
Y=Bottom+(Top−Bottom)/(1+10^((Log IC50−X)*HillSlope)) • X-axis: logarithm of compound concentration; Y axis: inhibition rate (% inhibition).

This is an account of results in patent US20250257086A1, “EGFR DEGRADATION AGENT” (Beijing Tide Pharmaceutical Co., Ltd., priority 2022, published 2025).

Sequence of Ba/F3 (EGFR^L858R/T790M/C797S) cells (P00533 whole entry T790M/C797S/L858R): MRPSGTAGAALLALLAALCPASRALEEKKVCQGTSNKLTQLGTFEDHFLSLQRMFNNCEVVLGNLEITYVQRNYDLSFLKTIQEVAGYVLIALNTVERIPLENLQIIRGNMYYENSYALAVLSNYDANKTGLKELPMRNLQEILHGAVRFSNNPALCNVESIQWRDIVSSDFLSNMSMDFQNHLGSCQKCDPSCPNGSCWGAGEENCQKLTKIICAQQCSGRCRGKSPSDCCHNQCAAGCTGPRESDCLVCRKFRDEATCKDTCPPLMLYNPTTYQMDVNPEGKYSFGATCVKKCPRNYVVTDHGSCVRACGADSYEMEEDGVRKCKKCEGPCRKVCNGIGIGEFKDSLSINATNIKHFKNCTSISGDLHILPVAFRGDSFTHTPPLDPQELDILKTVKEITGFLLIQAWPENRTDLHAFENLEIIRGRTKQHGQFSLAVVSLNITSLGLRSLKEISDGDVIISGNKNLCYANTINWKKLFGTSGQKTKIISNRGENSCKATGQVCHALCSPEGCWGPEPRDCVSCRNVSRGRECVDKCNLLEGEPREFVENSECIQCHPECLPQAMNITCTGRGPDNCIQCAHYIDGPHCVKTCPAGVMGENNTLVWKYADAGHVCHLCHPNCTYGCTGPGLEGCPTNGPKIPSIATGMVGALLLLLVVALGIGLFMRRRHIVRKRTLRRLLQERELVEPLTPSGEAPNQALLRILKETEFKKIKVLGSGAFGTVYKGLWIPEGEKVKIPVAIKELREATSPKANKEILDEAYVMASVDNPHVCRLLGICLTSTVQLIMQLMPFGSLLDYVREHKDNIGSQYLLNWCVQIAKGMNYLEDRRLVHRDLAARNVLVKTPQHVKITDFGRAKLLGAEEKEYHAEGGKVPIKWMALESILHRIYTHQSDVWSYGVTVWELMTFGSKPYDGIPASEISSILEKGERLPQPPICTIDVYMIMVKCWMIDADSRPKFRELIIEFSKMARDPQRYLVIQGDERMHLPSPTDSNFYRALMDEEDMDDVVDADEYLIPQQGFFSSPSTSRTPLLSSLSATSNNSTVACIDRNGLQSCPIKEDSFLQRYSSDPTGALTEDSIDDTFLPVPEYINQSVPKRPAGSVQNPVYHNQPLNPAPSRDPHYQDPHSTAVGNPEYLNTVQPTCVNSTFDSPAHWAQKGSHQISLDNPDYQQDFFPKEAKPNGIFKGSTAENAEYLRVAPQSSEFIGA

As for `CCCC#CC(=O)Nc1cc(Nc2ncc(Cl)c(Nc3ccccc3P(C)(C)=O)n2)c(OC)cc1N1CCC(N2CCN(CCCC#Cc3cccc4c3CN(C3CCC(=O)NC3=O)C4=O)CC2)CC1` (stereo not shown) [Compound D631, N-(5-((5-chloro-4-((2-(dimethylphosphoryl)phenyl)amino)pyrimidin-2-yl)amino)-2-(4-(4-(5-(2-(2,6-dioxopiperidin-3-yl)-1-oxoisoindolin-4-yl)pent-4-yn-1-yl)piperazin-1-yl)piperidin-1-yl)-4-methoxyphenyl)hex-2-ynamide], the GI50 is 48.1 nM.

On to `COc1cc(N2CCC(N3CCN(CCCC#Cc4cccc5c4CN(C4CCC(=O)NC4=O)C5=O)CC3)CC2)c(NC(=O)C=C(C)C)cc1Nc1ncc(Cl)c(Nc2ccccc2P(C)(C)=O)n1` (stereo not shown) [Compound D633, N-(5-((5-chloro-4-((2-(dimethylphosphoryl)phenyl)amino)pyrimidin-2-yl)amino)-2-(4-(4-(5-(2-(2,6-dioxopiperidin-3-yl)-1-oxoisoindolin-4-yl)pent-4-yn-1-yl)piperazin-1-yl)piperidin-1-yl)-4-methoxyphenyl)-3-methylbut-2-enamide], for which the GI50 turned out to be 56.5 nM. For `CC#CC(=O)Nc1cc(Nc2ncc(Cl)c(Nc3ccccc3P(C)(C)=O)n2)ccc1N1CCC(N2CCN(CCCC#Cc3cccc4c3CN(C3CCC(=O)NC3=O)C4=O)CC2)CC1` (stereo not shown) [Compound D665, N-(5-((5-chloro-4-((2-(dimethylphosphoryl)phenyl)amino)pyrimidin-2-yl)amino)-2-(4-(4-(5-(2-(2,6-dioxopiperidin-3-yl)-1-oxoisoindolin-4-yl)pent-4-yn-1-yl)piperazin-1-yl)piperidin-1-yl)phenyl)but-2-ynamide], the GI50 was found to be 10.3 nM.

Take `C=C(F)C(=O)Nc1cc(Nc2ncc(Cl)c(Nc3ccccc3P(C)(C)=O)n2)ccc1N1CCC(N2CCN(CCCC#Cc3cccc4c3CN(C3CCC(=O)NC3=O)C4=O)CC2)CC1` (stereo not shown) [Compound D666, N-(5-((5-chloro-4-((2-(dimethylphosphoryl)phenyl)amino)pyrimidin-2-yl)amino)-2-(4-(4-(5-(2-(2,6-dioxopiperidin-3-yl)-1-oxoisoindolin-4-yl)pent-4-yn-1-yl)piperazin-1-yl)piperidin-1-yl)phenyl)-2-fluoroacrylamide]: the GI50 was 13.7 nM. For `CP(C)(=O)c1ccccc1Nc1nc(Nc2ccc(N3CCC(N4CCN(CCCC#Cc5cccc6c5CN(C5CCC(=O)NC5=O)C6=O)CC4)CC3)c(NC(=O)/C=C/C(F)(F)F)c2)ncc1Cl` (stereo not shown) [Compound D667, (E)-N-(5-((5-chloro-4-((2-(dimethylphosphoryl)phenyl)amino)pyrimidin-2-yl)amino)-2-(4-(4-(5-(2-(2,6-dioxopiperidin-3-yl)-1-oxoisoindolin-4-yl)pent-4-yn-1-yl)piperazin-1-yl)piperidin-1-yl)phenyl)-4,4,4-trifluorobut-2-enamide] the value was 18.1 nM. With `CCCC#CC(=O)Nc1cc(Nc2ncc(Cl)c(Nc3ccccc3P(C)(C)=O)n2)ccc1N1CCC(N2CCN(CCCC#Cc3cccc4c3CN(C3CCC(=O)NC3=O)C4=O)CC2)CC1` (stereo not shown) [Compound D668, N-(5-((5-chloro-4-((2-(dimethylphosphoryl)phenyl)amino)pyrimidin-2-yl)amino)-2-(4-(4-(5-(2-(2,6-dioxopiperidin-3-yl)-1-oxoisoindolin-4-yl)pent-4-yn-1-yl)piperazin-1-yl)piperidin-1-yl)phenyl)hex-2-ynamide], the GI50 stood at 21.2 nM. With `C=CC(=O)Nc1cc(Nc2ncc(Cl)c(Nc3ccc4nccnc4c3P(C)(C)=O)n2)c(OC)cc1N1CCC(N2CCN(CCCC#Cc3cccc4c3CN(C3CCC(=O)NC3=O)C4=O)CC2)CC1` (stereo not shown) [Compound D670, N-(5-((5-chloro-4-((5-(dimethylphosphoryl)quinoxalin-6-yl)amino)pyrimidin-2-yl)amino)-2-(4-(4-(5-(2-(2,6-dioxopiperidin-3-yl)-1-oxoisoindolin-4-yl)pent-4-yn-1-yl)piperazin-1-yl)piperidin-1-yl)-4-methoxyphenyl)acrylamide], the GI50 was found to be 25.7 nM. The value for `C=C(F)C(=O)Nc1cc(Nc2ncc(Cl)c(Nc3ccc4nccnc4c3P(C)(C)=O)n2)c(OC)cc1N1CCC(N2CCN(CCCC#Cc3cccc4c3CN(C3CCC(=O)NC3=O)C4=O)CC2)CC1` (stereo not shown) [Compound D671, N-(5-((5-chloro-4-((5-(dimethylphosphoryl)quinoxalin-6-yl)amino)pyrimidin-2-yl)amino)-2-(4-(4-(5-(2-(2,6-dioxopiperidin-3-yl)-1-oxoisoindolin-4-yl)pent-4-yn-1-yl)piperazin-1-yl)piperidin-1-yl)-4-methoxyphenyl)-2-fluoroacrylamide] was 14.5 nM; that for `CC#CC(=O)Nc1cc(Nc2ncc(Cl)c(Nc3ccc4nccnc4c3P(C)(C)=O)n2)c(OC)cc1N1CCC(N2CCN(CCCC#Cc3cccc4c3CN(C3CCC(=O)NC3=O)C4=O)CC2)CC1` (stereo not shown) [Compound D672, N-(5-((5-chloro-4-((5-(dimethylphosphoryl)quinoxalin-6-yl)amino)pyrimidin-2-yl)amino)-2-(4-(4-(5-(2-(2,6-dioxopiperidin-3-yl)-1-oxoisoindolin-4-yl)pent-4-yn-1-yl)piperazin-1-yl)piperidin-1-yl)-4-methoxyphenyl)but-2-ynamide] was 15.1 nM. `COc1cc(N2CCC(N3CCN(CCCC#Cc4cccc5c4CN(C4CCC(=O)NC4=O)C5=O)CC3)CC2)c(NC(=O)/C=C/C(F)(F)F)cc1Nc1ncc(Cl)c(Nc2ccc3nccnc3c2P(C)(C)=O)n1` (stereo not shown) [Compound D673, (E)-N-(5-((5-chloro-4-((5-(dimethylphosphoryl)quinoxalin-6-yl)amino)pyrimidin-2-yl)amino)-2-(4-(4-(5-(2-(2,6-dioxopiperidin-3-yl)-1-oxoisoindolin-4-yl)pent-4-yn-1-yl)piperazin-1-yl)piperidin-1-yl)-4-methoxyphenyl)-4,4,4-trifluorobut-2-enamide]: the GI50 was 20.6 nM.

As to `C=C(F)C(=O)Nc1cc(Nc2ncc(Cl)c(Nc3ccc4c(c3P(C)(C)=O)OCCO4)n2)c(OC)cc1N1CCC(N2CCN(CCCC#Cc3cccc4c3CN(C3CCC(=O)NC3=O)C4=O)CC2)CC1` (stereo not shown) [Compound D682], the GI50 came out at 14.6 nM. As for `C=CC(=O)Nc1cc(Nc2ncc(Cl)c(Nc3ccc4c(c3P(C)(C)=O)OCCO4)n2)c(OC)cc1N1CCC(N2CCN(CCCC#Cc3cccc4c3CN(C3CCC(=O)NC3=O)C4=O)CC2)CC1` (stereo not shown) [Compound D683], the GI50 stood at 22.3 nM. For `COc1cc(N2CCC(N3CCN(CCCC#Cc4cccc5c4CN(C4CCC(=O)NC4=O)C5=O)CC3)CC2)c(NC(=O)/C=C/C(F)(F)F)cc1Nc1ncc(Cl)c(Nc2ccc3c(c2P(C)(C)=O)OCCO3)n1` (stereo not shown) [Compound D684] the value was 24.1 nM; for `CC#CC(=O)Nc1cc(Nc2ncc(Cl)c(Nc3ccc4c(c3P(C)(C)=O)OCCO4)n2)c(OC)cc1N1CCC(N2CCN(CCCC#Cc3cccc4c3CN(C3CCC(=O)NC3=O)C4=O)CC2)CC1` (stereo not shown) [Compound D685], 22.5 nM.

Turning to `COc1cc(N2CCC(N3CCN(CCCC#Cc4cccc5c4CN(C4CCC(=O)NC4=O)C5=O)CC3)CC2)c(C)cc1Nc1ncc(Br)c(Nc2ccc3nccnc3c2NS(C)(=O)=O)n1` (stereo not shown) [Compound D741, N-(6-((5-bromo-2-((4-(4-(4-(5-(2-(2,6-dioxopiperidin-3-yl)-1-oxoisoindolin-4-yl)pent-4-yn-1-yl)piperazin-1-yl)piperidin-1-yl)-2-methoxy-5-methylphenyl)amino)pyrimidin-4-yl)amino)quinoxalin-5-yl)methanesulfonamide], the GI50 came to 10.2 nM. For `C=C(F)C(=O)Nc1cc(Nc2ncc(C(F)(F)F)c(Nc3ccccc3P(C)(C)=O)n2)c(OC)cc1N1CCC(N2CCN(CCCC#Cc3cccc4c3CN(C3CCC(=O)NC3=O)C4=O)CC2)CC1` (stereo not shown) [Compound D746, N-(5-((4-((2-(dimethylphosphoryl)phenyl)amino)-5-(trifluoromethyl)pyrimidin-2-yl)amino)-2-(4-(4-(5-(2-(2,6-dioxopiperidin-3-yl)-1-oxoisoindolin-4-yl)pent-4-yn-1-yl)piperazin-1-yl)piperidin-1-yl)-4-methoxyphenyl)-2-fluoroacrylamide] the value was 3.36 nM; for `COc1cc(N2CCC(N3CCN(CCCC#Cc4cccc5c4CN(C4CCC(=O)NC4=O)C5=O)CC3)CC2)c(NC(=O)/C=C/C(F)(F)F)cc1Nc1ncc(C(F)(F)F)c(Nc2ccccc2P(C)(C)=O)n1` (stereo not shown) [Compound D747, (E)-N-(5-((4-((2-(dimethylphosphoryl)phenyl)amino)-5-(trifluoromethyl)pyrimidin-2-yl)amino)-2-(4-(4-(5-(2-(2,6-dioxopiperidin-3-yl)-1-oxoisoindolin-4-yl)pent-4-yn-1-yl)piperazin-1-yl)piperidin-1-yl)-4-methoxyphenyl)-4,4,4-trifluorobut-2-enamide], 8.77 nM. Take `CC#CC(=O)Nc1cc(Nc2ncc(C(F)(F)F)c(Nc3ccccc3P(C)(C)=O)n2)c(OC)cc1N1CCC(N2CCN(CCCC#Cc3cccc4c3CN(C3CCC(=O)NC3=O)C4=O)CC2)CC1` (stereo not shown) [Compound D748, N-(5-((4-((2-(dimethylphosphoryl)phenyl)amino)-5-(trifluoromethyl)pyrimidin-2-yl)amino)-2-(4-(4-(5-(2-(2,6-dioxopiperidin-3-yl)-1-oxoisoindolin-4-yl)pent-4-yn-1-yl)piperazin-1-yl)piperidin-1-yl)-4-methoxyphenyl)but-2-ynamide]: the GI50 turned out to be 7.76 nM. Turning to `CCCC#CC(=O)Nc1cc(Nc2ncc(C(F)(F)F)c(Nc3ccccc3P(C)(C)=O)n2)c(OC)cc1N1CCC(N2CCN(CCCC#Cc3cccc4c3CN(C3CCC(=O)NC3=O)C4=O)CC2)CC1` (stereo not shown) [Compound D835, N-(5-((4-((2-(dimethylphosphoryl)phenyl)amino)-5-(trifluoromethyl)pyrimidin-2-yl)amino)-2-(4-(4-(5-(2-(2,6-dioxopiperidin-3-yl)-1-oxoisoindolin-4-yl)pent-4-yn-1-yl)piperazin-1-yl)piperidin-1-yl)-4-methoxyphenyl)hex-2-ynamide], the GI50 amounted to 11.9 nM.
